Test results taken from ChEMBL document CHEMBL4364309, “Rigidification Dramatically Improves Inhibitor Selectivity for RAF Kinases” (ACS Med Chem Lett, 2019).

Key:
MDA-MB-435 = test: Growth inhibition of human MDA-MB-435 cells harboring BRAF V600E mutant incubated for 48 hrs by sulforhodamine B assay; type: functional
[1] = target: Protein-tyrosine kinase 6 (Homo sapiens) (UniProt Q13882); test: Inhibition of BRK (unknown origin) at 1 uM relative to control
[2] = target: Serine/threonine-protein kinase B-raf (Homo sapiens) (UniProt P15056); test: Inhibition of BRAF (unknown origin) at 1 uM relative to control
Sequence of Serine/threonine-protein kinase B-raf (Homo sapiens) (P15056 whole entry, the tested form may be a part): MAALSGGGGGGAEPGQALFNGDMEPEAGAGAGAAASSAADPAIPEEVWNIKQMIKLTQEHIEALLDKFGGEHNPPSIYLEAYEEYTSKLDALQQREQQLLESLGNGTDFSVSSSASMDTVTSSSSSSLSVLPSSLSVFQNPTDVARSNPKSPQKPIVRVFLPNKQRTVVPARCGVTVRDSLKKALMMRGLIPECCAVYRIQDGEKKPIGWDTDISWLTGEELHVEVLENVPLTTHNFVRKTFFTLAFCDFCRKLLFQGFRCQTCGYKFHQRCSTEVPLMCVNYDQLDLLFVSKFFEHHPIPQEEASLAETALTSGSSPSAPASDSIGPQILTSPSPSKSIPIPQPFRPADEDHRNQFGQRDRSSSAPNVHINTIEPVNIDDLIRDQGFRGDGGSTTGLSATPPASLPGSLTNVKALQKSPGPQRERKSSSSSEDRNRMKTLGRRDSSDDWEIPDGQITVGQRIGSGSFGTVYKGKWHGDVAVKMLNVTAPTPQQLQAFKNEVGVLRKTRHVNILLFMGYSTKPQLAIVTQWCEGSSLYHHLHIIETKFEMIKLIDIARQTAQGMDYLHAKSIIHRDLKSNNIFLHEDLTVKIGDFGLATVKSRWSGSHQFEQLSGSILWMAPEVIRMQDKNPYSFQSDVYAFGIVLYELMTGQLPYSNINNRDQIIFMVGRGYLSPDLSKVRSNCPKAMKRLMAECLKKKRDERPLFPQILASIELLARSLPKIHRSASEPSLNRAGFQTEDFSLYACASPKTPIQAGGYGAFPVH

[3] = target: T1, Serine/threonine-protein kinase B-raf (Homo sapiens, UniProt P15056, V600E); test: Inhibition of recombinant His-tagged BRAF V600E mutant (unknown origin) (444-723 residues) expressed in Escherichia coli BL21(DE3)-RIL using MEKK97R as substrate assessed as reduction in phosphorylation incubated for 20 mins by immunoblot assay
T1 sequence (P15056 2-766 V600E limits assumed): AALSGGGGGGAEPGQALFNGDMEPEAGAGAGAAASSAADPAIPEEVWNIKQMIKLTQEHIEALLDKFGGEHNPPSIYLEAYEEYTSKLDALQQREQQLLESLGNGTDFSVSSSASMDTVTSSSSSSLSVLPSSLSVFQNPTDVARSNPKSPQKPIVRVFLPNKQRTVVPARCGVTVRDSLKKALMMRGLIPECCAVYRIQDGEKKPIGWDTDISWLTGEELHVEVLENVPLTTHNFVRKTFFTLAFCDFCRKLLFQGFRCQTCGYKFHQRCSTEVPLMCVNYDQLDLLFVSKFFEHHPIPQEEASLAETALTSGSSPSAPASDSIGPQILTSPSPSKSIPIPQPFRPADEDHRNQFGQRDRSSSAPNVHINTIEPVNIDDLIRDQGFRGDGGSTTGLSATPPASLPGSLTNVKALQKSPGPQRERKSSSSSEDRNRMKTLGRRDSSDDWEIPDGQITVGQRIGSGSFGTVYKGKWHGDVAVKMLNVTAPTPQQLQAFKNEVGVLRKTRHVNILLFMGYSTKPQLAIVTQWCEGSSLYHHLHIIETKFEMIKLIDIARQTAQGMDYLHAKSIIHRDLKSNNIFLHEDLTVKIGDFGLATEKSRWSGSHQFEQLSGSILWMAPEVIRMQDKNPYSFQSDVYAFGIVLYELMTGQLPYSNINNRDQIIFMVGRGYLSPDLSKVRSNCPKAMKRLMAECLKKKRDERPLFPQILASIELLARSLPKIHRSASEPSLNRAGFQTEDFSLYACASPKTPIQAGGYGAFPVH

A-375 = test: Antiproliferative activity at human A375 cells expressing BRAF V600E mutant assessed as reduction in cell viability incubated for 96 hrs by MTT assay; type: functional, cell-based; conditions: A-375, 96 h
[4] = target: T1, Serine/threonine-protein kinase B-raf; test: Inhibition of BRAF V600E in human A375 cells assessed as reduction in ERK phosphorylation incubated for 1 hr by immunoblot analysis; type: cell-based
[5] = tested on: Serine/threonine-protein kinase B-raf (Homo sapiens), P15056 [V600E]; test: Potency index, ratio vemurafenib IC50 to test compound IC50 for Inhibition of recombinant His-tagged BRAF V600E mutant (unknown origin) (444 to 723 residues) expressed in Escherichia coli BL21(DE3)-RIL
Sequence of Serine/threonine-protein kinase B-raf (Homo sapiens), P15056 [V600E] (P15056 whole entry V600E, the tested form may be a part): as the sequence (P15056 whole entry, the tested form may be a part) above, with V600E counted along it

SK-MEL-5 = test: Growth inhibition of human SK-MEL-5 cells harboring BRAF V600E mutant incubated for 48 hrs by sulforhodamine B assay; type: functional
[6] = target: RAF proto-oncogene serine/threonine-protein kinase (Homo sapiens) (UniProt P04049); test: Inhibition of CRAF (unknown origin) at 1 uM relative to control
Sequence of RAF proto-oncogene serine/threonine-protein kinase (Homo sapiens) (P04049 whole entry): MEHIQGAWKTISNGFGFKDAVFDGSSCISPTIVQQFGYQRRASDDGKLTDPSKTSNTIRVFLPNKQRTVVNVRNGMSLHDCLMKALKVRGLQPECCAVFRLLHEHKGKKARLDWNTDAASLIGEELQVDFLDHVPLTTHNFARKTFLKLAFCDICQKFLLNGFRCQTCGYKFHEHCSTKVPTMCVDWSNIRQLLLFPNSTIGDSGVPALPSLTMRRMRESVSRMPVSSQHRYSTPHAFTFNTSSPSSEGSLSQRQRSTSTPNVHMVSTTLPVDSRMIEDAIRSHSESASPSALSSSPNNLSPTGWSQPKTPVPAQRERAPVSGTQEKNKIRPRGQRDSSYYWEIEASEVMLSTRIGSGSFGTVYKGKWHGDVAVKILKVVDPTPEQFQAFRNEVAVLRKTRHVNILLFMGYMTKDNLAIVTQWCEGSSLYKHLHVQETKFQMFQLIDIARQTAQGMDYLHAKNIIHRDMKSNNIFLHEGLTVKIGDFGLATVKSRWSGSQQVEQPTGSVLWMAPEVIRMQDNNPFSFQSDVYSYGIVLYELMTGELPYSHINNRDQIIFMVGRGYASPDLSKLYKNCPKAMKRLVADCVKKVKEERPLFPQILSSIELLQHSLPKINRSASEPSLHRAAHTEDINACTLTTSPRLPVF

[7] = target: Macrophage colony-stimulating factor 1 receptor (Homo sapiens) (UniProt P07333); test: Inhibition of FMS (unknown origin) at 1 uM relative to control
Sequence of Macrophage colony-stimulating factor 1 receptor (Homo sapiens) (P07333 whole entry): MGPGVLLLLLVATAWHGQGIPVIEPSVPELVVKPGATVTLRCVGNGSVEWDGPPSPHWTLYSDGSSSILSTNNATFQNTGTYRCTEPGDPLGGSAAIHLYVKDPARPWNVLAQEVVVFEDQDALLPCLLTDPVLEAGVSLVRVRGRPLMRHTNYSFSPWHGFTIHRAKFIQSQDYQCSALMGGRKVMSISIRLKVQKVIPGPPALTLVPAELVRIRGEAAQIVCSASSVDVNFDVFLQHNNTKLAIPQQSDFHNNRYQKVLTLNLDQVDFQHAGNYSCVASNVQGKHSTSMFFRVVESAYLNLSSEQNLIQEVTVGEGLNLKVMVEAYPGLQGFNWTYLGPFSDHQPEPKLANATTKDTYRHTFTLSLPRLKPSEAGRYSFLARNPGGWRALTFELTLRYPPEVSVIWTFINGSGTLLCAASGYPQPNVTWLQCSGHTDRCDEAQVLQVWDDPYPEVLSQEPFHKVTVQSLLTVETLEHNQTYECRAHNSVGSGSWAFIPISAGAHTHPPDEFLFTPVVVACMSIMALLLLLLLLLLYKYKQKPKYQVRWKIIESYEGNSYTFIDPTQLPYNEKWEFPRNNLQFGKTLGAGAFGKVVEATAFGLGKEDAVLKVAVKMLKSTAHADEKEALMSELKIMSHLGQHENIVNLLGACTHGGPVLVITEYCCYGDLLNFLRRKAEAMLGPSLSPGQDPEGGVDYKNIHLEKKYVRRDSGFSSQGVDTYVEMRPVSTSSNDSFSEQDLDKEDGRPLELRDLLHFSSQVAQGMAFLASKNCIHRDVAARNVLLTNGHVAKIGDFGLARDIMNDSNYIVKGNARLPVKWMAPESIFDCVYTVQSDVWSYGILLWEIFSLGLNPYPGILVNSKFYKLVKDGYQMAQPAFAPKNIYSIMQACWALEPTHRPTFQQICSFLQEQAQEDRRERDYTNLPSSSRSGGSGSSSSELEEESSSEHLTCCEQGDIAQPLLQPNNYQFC

Malme-3M = test: Growth inhibition of human MALME-3M cells harboring BRAF V600E mutant incubated for 48 hrs by sulforhodamine B assay; type: functional

Sequence of Protein-tyrosine kinase 6 (Homo sapiens) (Q13882 whole entry, looked up): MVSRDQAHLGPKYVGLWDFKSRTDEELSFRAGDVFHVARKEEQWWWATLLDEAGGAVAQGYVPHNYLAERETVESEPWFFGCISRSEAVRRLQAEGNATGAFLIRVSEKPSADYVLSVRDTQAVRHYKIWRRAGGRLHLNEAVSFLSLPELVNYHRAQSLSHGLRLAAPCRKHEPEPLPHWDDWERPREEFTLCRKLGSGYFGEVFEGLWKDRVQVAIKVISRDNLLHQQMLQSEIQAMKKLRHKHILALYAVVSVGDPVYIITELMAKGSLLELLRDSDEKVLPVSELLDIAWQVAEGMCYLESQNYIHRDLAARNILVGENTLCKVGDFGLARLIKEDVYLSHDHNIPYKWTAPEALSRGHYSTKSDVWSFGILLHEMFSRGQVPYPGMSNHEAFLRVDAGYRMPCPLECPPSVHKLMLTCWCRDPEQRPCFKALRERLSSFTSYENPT

| IC50 [3] | IC50 (A-375) | SMILES | further results |
| --- | --- | --- | --- |
| 8 nM | 417 nM | CCn1nc(C#Cc2c(C)ccc3c(Nc4ccc(Cl)cc4)nccc23)c2c(N)ncnc21 | Activity (MDA-MB-435): Dose-dependent effect; GI (MDA-MB-435): 4.6 µM; inhibition [1]: > 85%; inhibition [2]: > 85%; IC50 [4]: 420 nM; Ratio IC50 [5]: 2; Activity (SK-MEL-5): Dose-dependent effect; GI (SK-MEL-5): 6.6 µM; inhibition [6]: > 85%; inhibition [7]: > 85%; Activity (Malme-3M): Dose-dependent effect; GI (Malme-3M): 7.1 µM |
| 41 nM | > 10000 nM | CCn1nc(C#Cc2cccc3c(Nc4cccc(C(F)(F)F)c4)nccc23)c2c(N)ncnc21 | – |
| > 300 nM | – | Cc1ccc(Nc2nccc3c(C#Cc4nn(C(C)C)c5ncnc(N)c45)cccc23)cc1C(F)(F)F | – |
| > 300 nM | – | CC(C)n1nc(C#Cc2cccc3c(Nc4ccc(Cl)c(C(F)(F)F)c4)nccc23)c2c(N)ncnc21 | – |
| 29 nM | > 10000 nM | CC(C)n1nc(C#Cc2cccc3c(Nc4ccc(Cl)cc4)nccc23)c2c(N)ncnc21 | – |
| > 300 nM | – | Cc1cn(-c2cc(Nc3nccc4c(C#Cc5nn(C(C)C)c6ncnc(N)c56)cccc34)cc(C(F)(F)F)c2)cn1 | – |
| > 300 nM | – | CC(C)n1nc(C#Cc2cccc3c(Nc4cccc(C(F)(F)F)c4)cccc23)c2c(N)ncnc21 | – |
| – | – | CCCS(=O)(=O)Nc1ccc(F)c(C(=O)c2c[nH]c3ncc(-c4ccc(Cl)cc4)cc23)c1F | inhibition [2]: > 85%; inhibition [6]: > 85% |
| > 300 nM | – | CC(C)n1nc(C#Cc2cccc3c(Oc4cccc(C(F)(F)F)c4)nccc23)c2c(N)ncnc21 | – |
| > 300 nM | – | CC(C)n1nc(C#Cc2cccc3c(Nc4cccc(C(F)(F)F)c4)ncnc23)c2c(N)ncnc21 | – |
| 140 nM | > 10000 nM | CC(C)n1nc(C#Cc2cccc3c(Nc4cccc(C(F)(F)F)c4)nccc23)c2c(N)ncnc21 | inhibition [2]: > 85%; inhibition [6]: > 85% |
| > 300 nM | – | CCCn1nc(C#Cc2cccc3c(Nc4cccc(C(F)(F)F)c4)nccc23)c2c(N)ncnc21 | – |
| 21 nM | 869 nM | Cc1ccc2c(Nc3cccc(C(F)(F)F)c3)nccc2c1C#Cc1nn(C(C)C)c2ncnc(N)c12 | – |
